# Read-outs that look alike come from different tables or passages of the source.
# Target: T1, NLRP3 (Homo sapiens, UniProt Q96P20)
# T1 construct: IL-1β Production in PMA-Differentiated THP-1 Cells Stimulated with Gramicidin; host or cells: THP-1 cells, PMA-differentiated
# Assay: IL-1β production in PMA-differentiated THP-1 cells stimulated with gramicidin (hTHP-1 assay)
# Assay type: cell-based
# Details: hTHP-1 assay containing 2% fetal bovine serum, read-out: NLRP3 Antagonist, human THP1 NLRP3, IL-1b, Normalized: GeoMean IC50
# Protocol: IL-1β Production in PMA-Differentiated THP-1 Cells Stimulated with Gramicidin.
# THP-1 cells were purchased from the American Type Culture Collection and sub-cultured according to instructions from the supplier. […] Prior to the experiment THP-1 were treated with PMA (Phorbol 12-myristate 13-acetate) (20 ng/ml) for 16-18 hours. On the day of the experiment the media was removed and adherent cells were detached with trypsin for 5 minutes. […] A vehicle only control was run concurrently with each experiment. Final DMSO concentration was 0.38%.
# THP-1 cells were purchased from the American Type Culture Collection and sub-cultured according to instructions from the supplier. […] Prior to the experiment THP-1 were treated with PMA (Phorbol 12-myristate 13-acetate) (20 ng/ml) for 16-18 hours. Compounds were dissolved in dimethyl sulfoxide (DMSO) to generate a 30 mM stock. On the day of the experiment the media was removed and adherent cells were detached with trypsin for 5 minutes. […] Final DMSO concentration was at 0.37%. Cells were incubated with compounds for 1 hour and then stimulated with gramicidin (5 μM) (Enzo) for 2 hours. Plates were then centrifuged at 340 g for 5 min. Cell free supernatant (40 μL) was collected using a 96-channel PlateMaster (Gilson) and the production of IL-1p was evaluated by HTRF (cisbio).
# IL-1p Production in PMA-Differentiated THP-1 Cells Stimulated with Gramicidin.
# THP-1 cells were purchased from the American Type Culture Collection and sub-cultured according to instructions from the supplier. […] Prior to the experiment, compounds were dissolved in dimethyl sulfoxide (DMSO) to generate a 30 mM stock. […] DMSO was backfilled in the plate to achieve a final DMSO assay concentration of 0.37%. The plate was then sealed and stored at room temperature until required.
# THP-1 cells were treated with PMA (Phorbol 12-myristate 13-acetate) (20 ng/ml) for 16-18 hours. On the day of the experiment the media was removed and adherent cells were detached with trypsin for 5 minutes. […] The plates were incubated for 18 h at 4° C. and read using the preset HTRF program (donor emission at 620 nm, acceptor emission at 668 nm) of the SpectraMax i3x spectrophotometer (Molecular Devices, software SoftMax 6).
# [1] = average IC50, given as numeric bound
# T1 sequence (Q96P20 whole entry): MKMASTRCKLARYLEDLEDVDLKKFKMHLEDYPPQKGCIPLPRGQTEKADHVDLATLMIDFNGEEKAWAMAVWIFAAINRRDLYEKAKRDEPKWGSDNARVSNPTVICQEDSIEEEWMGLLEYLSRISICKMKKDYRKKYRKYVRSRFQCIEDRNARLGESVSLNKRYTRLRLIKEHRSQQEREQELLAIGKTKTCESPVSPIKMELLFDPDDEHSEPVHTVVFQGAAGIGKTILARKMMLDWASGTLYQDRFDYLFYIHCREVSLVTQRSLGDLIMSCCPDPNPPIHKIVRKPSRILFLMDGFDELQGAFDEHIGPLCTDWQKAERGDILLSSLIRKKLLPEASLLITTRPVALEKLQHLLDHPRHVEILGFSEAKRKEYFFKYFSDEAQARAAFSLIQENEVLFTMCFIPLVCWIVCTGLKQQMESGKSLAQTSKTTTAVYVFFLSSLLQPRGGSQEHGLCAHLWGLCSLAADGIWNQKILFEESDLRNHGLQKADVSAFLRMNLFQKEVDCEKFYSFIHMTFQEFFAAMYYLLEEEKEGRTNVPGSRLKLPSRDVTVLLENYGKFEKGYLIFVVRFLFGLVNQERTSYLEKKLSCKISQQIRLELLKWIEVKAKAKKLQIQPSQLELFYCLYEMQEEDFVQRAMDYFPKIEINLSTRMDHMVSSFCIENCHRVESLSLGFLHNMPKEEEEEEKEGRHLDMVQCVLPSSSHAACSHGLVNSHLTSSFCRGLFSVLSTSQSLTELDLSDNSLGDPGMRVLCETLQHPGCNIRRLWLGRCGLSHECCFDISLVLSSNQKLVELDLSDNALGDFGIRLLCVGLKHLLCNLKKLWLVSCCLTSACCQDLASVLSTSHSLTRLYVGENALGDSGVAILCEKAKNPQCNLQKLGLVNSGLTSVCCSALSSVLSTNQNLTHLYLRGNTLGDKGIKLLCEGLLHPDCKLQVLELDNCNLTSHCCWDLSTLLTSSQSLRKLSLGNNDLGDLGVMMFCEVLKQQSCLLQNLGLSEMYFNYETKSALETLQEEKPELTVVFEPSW
SMILES,"IC50 (average IC50, class symbols) [nM]",IC50 [1] [nM]
"CC(C)c1cc(-c2ccc3c(ccn3C(=O)OC(C)(C)C)c2)cc(C(C)C)c1CC(=O)NS(=O)(=O)c1ccc(CN(C)C)cc1 [Compound 115, tert-butyl 5-[4-[2-[[4-[(dimethylamino)methyl]phenyl]sulfonylamino]-2-oxoethyl]-3,5-di(propan-2-yl)phenyl]indole-1-carboxylate]",5000 to 30000,
"CC(C)c1cc(C2CCc3ccccc3C2)cc(C(C)C)c1CC(=O)NS(=O)(=O)c1ccc(CN(C)C)cc1 (stereo not drawn) [Compound 314, 2-[2,6-bis(propan-2-yl)-4-(1,2,3,4-tetrahydronaphthalen-2-yl)phenyl]-N-{4-[(dimethylamino)methyl]benzene-sulfonyl}acetamide]",1000 to 5000,
"CC(C)c1cc(C(=O)c2ccccc2)cc(C(C)C)c1CC(=O)NS(=O)(=O)c1ccc(CN(C)C)cc1 [Compound 373, 2-[4-benzoyl-2,6-bis(propan-2-yl)phenyl]-N-{4-[(dimethylamino)methyl]benzenesulfonyl}acetamide]",,> 30000
"Cc1ccc(-c2cc(C(C)C)c(CC(=O)NS(=O)(=O)c3ccc(CN(C)C)cc3)c(C(C)C)c2)cc1F [Compound 111, N-[4-[(dimethylamino)methyl]phenyl] sulfonyl-2-[4-(3-fluoro-4-methylphenyl)-2,6-di(propan-2-yl)phenyl]acetamide]",1000 to 5000,
"CC(C)c1cc(C2=CCCN(C(=O)OC(C)(C)C)C2)cc(C(C)C)c1CC(=O)NS(=O)(=O)c1ccc(CN(C)C)cc1 [Compound 122, tert-butyl 5-[4-[2-[[4-[(dimethylamino)methyl]phenyl]sulfonylamino]-2-oxoethyl]-3,5-di(propan-2-yl)phenyl]-3,6-dihydro-2H-pyridine-1-carboxylate]",,> 30000
"CC(C)c1cc(C2CCCC2)cc(C(C)C)c1CC(=O)NS(=O)(=O)c1ccc(CN(C)C)cc1 [Compound 355, 2-[4-cyclopentyl-2,6-bis(propan-2-yl)phenyl]-N-{4-[(dimethylamino)methyl]benzene-sulfonyl}acetamide]",5000 to 30000,

# Next, values leading:
"IC50 (average IC50, class symbols) [nM]",IC50 [1] [nM],SMILES
1000 to 5000,,"CC(C)c1cc(-c2ccc(Cl)cc2)cc(C(C)C)c1CC(=O)NS(=O)(=O)c1ccc(CN(C)C)cc1 [Compound 116, 2-[4-(4-chlorophenyl)-2,6-di(propan-2-yl)phenyl]-N-[4-[(dimethylamino)methyl]phenyl] sulfonylacetamide]"
200 to 1000,,"CC(C)c1cc(-c2ccc(F)c(Cl)c2)cc(C(C)C)c1CC(=O)NS(=O)(=O)c1ccc(CN(C)C)cc1 [Compound 112, 2-[4-(3-chloro-4-fluorophenyl)-2,6-di(propan-2-yl)phenyl]-N-[4-[(dimethylamino)methyl]phenyl] sulfonylacetamide]"
200 to 1000,,"Cc1ccc(-c2cc(C(C)C)c(CC(=O)NS(=O)(=O)c3ccc(CN(C)C)cc3)c(C(C)C)c2)cc1Cl [Compound 117, 2-[4-(3-chloro-4-methylphenyl)-2,6-di(propan-2-yl)phenyl]-N-[4-[(dimethylamino)methyl]phenyl] sulfonylacetamide]"
1000 to 5000,,C=C(C)c1cc(C(C)C)c(CC(=O)NS(=O)(=O)c2ccc(CN(C)C)cc2)c(C(C)C)c1 [Compound 147]
1000 to 5000,,"CC(C)c1cc(CCC2CCCC2)cc(C(C)C)c1CC(=O)NS(=O)(=O)c1ccc(CN(C)C)cc1 [Compound 325, 2-[4-(2-cyclopentylethyl)-2,6-bis(propan-2-yl)phenyl]-N-{4-[(dimethylamino)methyl]benzene-sulfonyl}acetamide]"
200 to 1000,,"CC(C)c1cc(-c2ccc(Cl)c(Cl)c2)cc(C(C)C)c1CC(=O)NS(=O)(=O)c1ccc(CN(C)C)cc1 [Compound 119, 2-[4-(3,4-dichlorophenyl)-2,6-di(propan-2-yl)phenyl]-N-[4-[(dimethylamino)methyl]phenyl] sulfonylacetamide]"

# From patent US11718631B2, “Sulphonamides and compositions thereof for treating conditions associated with NLRP activity” (Novartis AG, priority 2017, dated 2023)
